# According to US4652561A, “Naphtho[1,2-b]-1,4-thiazepinones” (Hoffmann-La Roche Inc., priority 1986, dated 1987):
# Assays:
# Guinea Pig Ileum = assay: Guinea pig ileum assay - tonic contraction (calcium channel blocking activity); conditions: inhibition of K^+ (80 mM) induced tonic contraction, 37° C.
# Procedure: GUINEA PIG ILEUM ASSAY--TONIC CONTRACTION
# Male guinea-pigs weighing from 300-400 grams were stunned and bled. The abdomen was opened and 10-15 cm of terminal ileum was carefully removed and cleaned and placed in Tyrode's Solution of the following composition: NaCl (8 g/l), KCl (0.2 g/l), MgCl2 (0.2 g/l.). CaCl2 (0.2 g/l). NaH2 PO4 (0.05 g/l), NaHCO3 (1.0 g/l) and Glucose (1 g/l). The solution was maintained at 37° C. and gassed with 95%O2 and 5%CO2. Portions of the ileum were placed over a glass rod, a shallow incision was made the length of the mesenteric attachment just severing the outer-longitudinal muscle layer. The longitudinal muscle was separated from the underlying circular muscle by gentle dissection (Rang, H. P. Annals of N.Y. Academy of Science Vol. 144, page 756, (1964)). The tissue was fixed at one end to a tissue holder, the other end was connected by a thread to a force transducer and suspended in a muscle bath containing Tyrode's Solution maintained at 37° C. and gassed with 95%O2 and 5%CO2. An initial tension of 500 mg was applied and the tissue allowed to equilibrate for 60 minutes prior to the start of the study. During this period the tissue was washed every 16 minutes. Each preparation, at 16 minute intervals, was challenged with KCl sufficient to yield a bath K^+ concentration of 80 mMK for 2 minutes, then washed with fresh solution. The 16 minute interval between K^+ challenges was maintained throughout the study. Upon stabilization of the responses to the K^+ challenge the test compound (potential calcium entry antagonist) was introduced into the bath 2 minutes prior to and during the 2 minute exposure to K^+ after which the bath was cleared and washed with fresh solution. Logarithmically increasing doses (up to 10^-4 M) of the potential antagonist were administered as the study progressed.
# The measure of compound's ability to inhibit the tonic contraction of muscle is a measure of its activity as a calcium channel blocking agent.
# SH rat = assay: Blood pressure lowering in the spontaneously hypertensive (SH) rat; assay type: in vivo; conditions: 50 mg/kg p.o.; for Duration: duration of SBP lowering
# Procedure: BLOOD PRESSURE LOWERING IN THE SPONTANEOUSLY HYPERTENSIVE (SH) RAT
# Six male SH rats were used for each test. Body weights were recorded. Six pre-drug control recordings of the systolic blood pressure (mmHg) were measured from the tails of the rats which were unanesthetized and restrained in holders. The rats were previously heated for 5-10 minutes at 32°-34° C. The systolic blood pressure was measured by an occlusion cuff.
# The compounds were administered orally to the rats in a composition that included 5% compound and the remainder gum acacia. The blood pressure of the rats was measured over a period of hours following oral administration.
# The measure of a compound's ability to decrease blood pressure, is a measure of its ability as an anti-hypertensive agent.
Structure (SMILES),IC50 (Guinea Pig Ileum),"Systolic Blood Pressure (SBP) in the SH rat, SBP (Δ mm Hg) (SH rat)",Duration (SH rat)
"COc1ccc([C@@H]2Sc3c(ccc4ccccc34)N(CCN(C)C)C(=O)[C@H]2OC(C)=O)cc1 (racemic) [H, (±)-trans-3-(acetyloxy)-2,3-dihydro-2-(4-methoxyphenyl)-5-[2-(dimethylamino)ethyl]naphtho[1,2-b]-1,4-thiazepin-4(5H)-one]",46 µM,,
"COc1ccc([C@@H]2Sc3c(ccc4ccccc34)N(CCN(C)C)C(=O)[C@@H]2OC(C)=O)cc1 [A, (+)-cis-3-(acetyloxy)-2,3-dihydro-2-(4-methoxyphenyl)-5-[2-(dimethylamino)ethyl]naphtho[1,2-b]-1,4-thiazepin-4(5H)-one]",1.3 µM,-67 ± 7 mm Hg,19 h
"COc1ccc([C@@H]2Sc3c(ccc4ccccc34)N(CCN(C)C)C(=O)[C@H]2O)cc1 (racemic) [G, (±)-trans-2,3-dihydro-3-hydroxy-2-(4-methoxyphenyl)-5-[2-(dimethylamino)ethyl]naphtho[1,2-b]-1,4-thiazepin-4(5H)-one]",63 µM,,
"COc1ccc([C@@H]2Sc3c(ccc4ccccc34)N(CCN(C)C)C(=O)[C@@H]2O)cc1 [E, (-)-cis-2,3-dihydro-3-hydroxy-2-(4-methoxyphenyl)-5-[2-(dimethylamino)ethyl]naphtho[1,2-b]-1,4-thiazepin-4(5H)-one]",56 µM,,

# The next molecules have a lower IC50 (Guinea Pig Ileum) than those just listed; values first:
IC50 (Guinea Pig Ileum),Structure (SMILES),"Systolic Blood Pressure (SBP) in the SH rat, SBP (Δ mm Hg) (SH rat)",Duration (SH rat)
1.1 µM,"COc1ccc([C@@H]2Sc3c(ccc4ccccc34)N(CCN(C)C)C(=O)[C@@H]2O)cc1 [B, (+)-cis-5-[2-(dimethylamino)ethyl]-2,3-dihydro-3-hydroxy-2-(4-methoxyphenyl)naphtho[1,2-b]-1,4-thiazepin-4(5H)-one]",-63 ± 9 mm Hg,24 h
0.52 µM,"COc1ccc([C@@H]2Sc3c(ccc4ccccc34)N(CCN(C)C)C(=O)[C@@H]2O)cc1 (racemic) [C, (±)-cis-5-[2-(dimethylamino)ethyl]-2,3-dihydro-3-hydroxy-2-(4-methoxyphenyl)naphtho[1,2-b]-1,4-thiazepin-4(5H)-one]",,
0.23 µM,"COc1ccc([C@@H]2Sc3c(ccc4ccccc34)N(CCN(C)C)C(=O)[C@@H]2OC(C)=O)cc1 (racemic) [D, (±)-cis-3-(acetyloxy)-2,3-dihydro-2-(4-methoxyphenyl)-5-[2-(dimethylamino)ethyl]naphtho[1,2-b]-1,4-thiazepin-4(5H)-one]",,
